Laboratory results from BindingDB's records for doi:10.1016/j.bmcl.2004.08.039 (Glaxosmithkline, 2004).

The compounds below were run against T1, Dimer of Gag-Pol polyprotein [501-599,Q508K,L534I,L564I,C568A,C596A] (Human immunodeficiency virus 1, UniProt P03367, C568A/C596A/L534I/L564I/Q508K) (assay: Protease Inhibition Assay). Conditions: pH 6.4; 25 °C.
T1 construct: 501-599
Protocol: The Ki values were determined using fluorogenic substrate, 2-(aminobenzoyl)-Thr-Ile-Nle-Phe(p-NO2)-Gln-ArgNH2. A standard curve relating changes in fluorescent intensity to changes in concentration of product was used to convert fluorescent changes into molar velocities. The amount of cleavage was determined by HPLC.

Compound | Ki
O=C(NCCN1CCOCC1)c1cccc(C[C@H]2C[C@H](Cc3ccccc3)N(C[C@@H](O)C[C@@H](Cc3ccccc3)C(=O)N[C@H]3c4ccccc4C[C@H]3O)C2=O)c1 [3-{[(3S,5R)-5-benzyl-1-[(2S,4R)-4-benzyl-2-hydroxy-4-{[(1S,2R)-2-hydroxy-2,3-dihydro-1H-inden-1-yl]carbamoyl}butyl]-2-oxopyrrolidin-3-yl]methyl}-N-[2-(morpholin-4-yl)ethyl]benzamide] | 0.15 nM
CCNC(=O)Nc1cccc(C[C@H]2C[C@H](Cc3ccccc3)N(C[C@@H](O)C[C@@H](Cc3ccccc3)C(=O)N[C@H]3c4ccccc4C[C@H]3O)C2=O)c1 [(2R,4S)-2-benzyl-5-[(3S,5R)-5-benzyl-3-({3-[(ethylcarbamoyl)amino]phenyl}methyl)-2-oxopyrrolidin-1-yl]-4-hydroxy-N-[(1S,2R)-2-hydroxy-2,3-dihydro-1H-inden-1-yl]pentanamide] | 0.2 nM
O=C(NCCOCCO)c1cccc(C[C@H]2C[C@H](Cc3ccccc3)N(C[C@@H](O)C[C@@H](Cc3ccccc3)C(=O)N[C@H]3c4ccccc4C[C@H]3O)C2=O)c1 [3-{[(3S,5R)-5-benzyl-1-[(2S,4R)-4-benzyl-2-hydroxy-4-{[(1S,2R)-2-hydroxy-2,3-dihydro-1H-inden-1-yl]carbamoyl}butyl]-2-oxopyrrolidin-3-yl]methyl}-N-[2-(2-hydroxyethoxy)ethyl]benzamide] | 0.24 nM
N#Cc1ccc(CC2C[C@H](Cc3ccccc3)N(C[C@@H](O)C[C@@H](Cc3ccccc3)C(=O)N[C@H]3c4ccccc4C[C@H]3O)C2=O)cc1 (stereo partly drawn) [(2R,4S)-2-benzyl-5-[(5R)-5-benzyl-3-[(4-cyanophenyl)methyl]-2-oxopyrrolidin-1-yl]-4-hydroxy-N-[(1S,2R)-2-hydroxy-2,3-dihydro-1H-inden-1-yl]pentanamide] | 0.34 nM
N#CCOc1cccc(C[C@H]2C[C@H](Cc3ccccc3)N(C[C@@H](O)C[C@@H](Cc3ccccc3)C(=O)N[C@H]3c4ccccc4C[C@H]3O)C2=O)c1 [(2R,4S)-2-benzyl-5-[(3S,5R)-5-benzyl-3-{[3-(cyanomethoxy)phenyl]methyl}-2-oxopyrrolidin-1-yl]-4-hydroxy-N-[(1S,2R)-2-hydroxy-2,3-dihydro-1H-inden-1-yl]pentanamide] | 0.08 nM
NC(=O)c1cccc(C[C@H]2C[C@H](Cc3ccccc3)N(C[C@@H](O)C[C@@H](Cc3ccc(OCCO)cc3)C(=O)N[C@H]3c4ccccc4C[C@H]3O)C2=O)c1 [3-{[(3S,5R)-5-benzyl-1-[(2S,4R)-2-hydroxy-4-{[(1S,2R)-2-hydroxy-2,3-dihydro-1H-inden-1-yl]carbamoyl}-4-{[4-(2-hydroxyethoxy)phenyl]methyl}butyl]-2-oxopyrrolidin-3-yl]methyl}benzamide] | 0.05 nM
O=C(N[C@H]1c2ccccc2C[C@H]1O)[C@H](Cc1ccccc1)C[C@H](O)CN1C(=O)C(Cc2ccncc2)C[C@@H]1Cc1ccccc1 (stereo partly drawn) [(2R,4S)-2-benzyl-5-[(5R)-5-benzyl-2-oxo-3-(pyridin-4-ylmethyl)pyrrolidin-1-yl]-4-hydroxy-N-[(1S,2R)-2-hydroxy-2,3-dihydro-1H-inden-1-yl]pentanamide] | 0.31 nM
N#Cc1cccc(C[C@H]2C[C@H](Cc3ccccc3)N(C[C@@H](O)C[C@@H](Cc3ccccc3)C(=O)N[C@H]3c4ccccc4C[C@H]3O)C2=O)c1 [(2R,4S)-2-benzyl-5-[(3S,5R)-5-benzyl-3-[(3-cyanophenyl)methyl]-2-oxopyrrolidin-1-yl]-4-hydroxy-N-[(1S,2R)-2-hydroxy-2,3-dihydro-1H-inden-1-yl]pentanamide] | 0.05 nM
Nc1cccc(C[C@H]2C[C@H](Cc3ccccc3)N(C[C@@H](O)C[C@@H](Cc3ccccc3)C(=O)N[C@H]3c4ccccc4C[C@H]3O)C2=O)c1 [(2R,4S)-5-[(3S,5R)-3-[(3-aminophenyl)methyl]-5-benzyl-2-oxopyrrolidin-1-yl]-2-benzyl-4-hydroxy-N-[(1S,2R)-2-hydroxy-2,3-dihydro-1H-inden-1-yl]pentanamide] | 0.1 nM
Nc1ccc(CC2C[C@H](Cc3ccccc3)N(C[C@@H](O)C[C@@H](Cc3ccccc3)C(=O)N[C@H]3c4ccccc4C[C@H]3O)C2=O)cc1 (stereo partly drawn) [(2R,4S)-5-[(5R)-3-[(4-aminophenyl)methyl]-5-benzyl-2-oxopyrrolidin-1-yl]-2-benzyl-4-hydroxy-N-[(1S,2R)-2-hydroxy-2,3-dihydro-1H-inden-1-yl]pentanamide] | 2.3 nM
NC(=O)c1cccc(C[C@H]2C[C@H](Cc3ccccc3)N(C[C@@H](O)C[C@@H](Cc3ccccc3)C(=O)N[C@H]3c4ccccc4C[C@H]3O)C2=O)c1 [3-{[(3S,5R)-5-benzyl-1-[(2S,4R)-4-benzyl-2-hydroxy-4-{[(1S,2R)-2-hydroxy-2,3-dihydro-1H-inden-1-yl]carbamoyl}butyl]-2-oxopyrrolidin-3-yl]methyl}benzamide] | 0.1 nM
NC(=O)COc1cccc(C[C@H]2C[C@H](Cc3ccccc3)N(C[C@@H](O)C[C@@H](Cc3ccccc3)C(=O)N[C@H]3c4ccccc4C[C@H]3O)C2=O)c1 [(2R,4S)-2-benzyl-5-[(3S,5R)-5-benzyl-3-{[3-(carbamoylmethoxy)phenyl]methyl}-2-oxopyrrolidin-1-yl]-4-hydroxy-N-[(1S,2R)-2-hydroxy-2,3-dihydro-1H-inden-1-yl]pentanamide] | 0.09 nM
CCOC(=O)CNC(=O)Nc1cccc(C[C@H]2C[C@H](Cc3ccccc3)N(C[C@@H](O)C[C@@H](Cc3ccccc3)C(=O)N[C@H]3c4ccccc4C[C@H]3O)C2=O)c1 [ethyl 2-{[(3-{[(3S,5R)-5-benzyl-1-[(2S,4R)-4-benzyl-2-hydroxy-4-{[(1S,2R)-2-hydroxy-2,3-dihydro-1H-inden-1-yl]carbamoyl}butyl]-2-oxopyrrolidin-3-yl]methyl}phenyl)carbamoyl]amino}acetate] | 0.1 nM
O=C(N[C@H]1c2ccccc2C[C@H]1O)[C@H](Cc1ccccc1)C[C@H](O)CN1C(=O)[C@@H](Cc2cccc(O)c2)C[C@@H]1Cc1ccccc1 [(2R,4S)-2-benzyl-5-[(3S,5R)-5-benzyl-3-[(3-hydroxyphenyl)methyl]-2-oxopyrrolidin-1-yl]-4-hydroxy-N-[(1S,2R)-2-hydroxy-2,3-dihydro-1H-inden-1-yl]pentanamide] | 0.05 nM
COC(=O)c1cccc(C[C@H]2C[C@H](Cc3ccccc3)N(C[C@@H](O)C[C@@H](Cc3ccccc3)C(=O)N[C@H]3c4ccccc4C[C@H]3O)C2=O)c1 [methyl 3-{[(3S,5R)-5-benzyl-1-[(2S,4R)-4-benzyl-2-hydroxy-4-{[(1S,2R)-2-hydroxy-2,3-dihydro-1H-inden-1-yl]carbamoyl}butyl]-2-oxopyrrolidin-3-yl]methyl}benzoate] | 0.42 nM
